Where two headings read alike, the source gives them in different places.
Columns and labels:
HEK293 cell line = settings: glutamine-free EX-CELL 293 SFM, MSX 0-1000 μM, suspension culture
Method: The cell growth rate and the cell viability were investigated in the course of culture of HEK293 cell line with the addition of different concentrations of MSX.
Particularly, HEK293 host cells were inoculated in 50 ml of the glutamine-free EX-CELL® 293 SFM medium (Sigma), and also inoculated in the control medium supplemented with 4 mM glutamine. To the experimental group, MSX, the glutamine synthetase inhibitor, was added at the concentrations of 0 μM, 100 μM, 300 μM, 500 μM, and 1000 μM, respectively. The cell mixture was inoculated in Erlenmeyer flask at the density of 3×10^5 cells/ml, followed by suspension culture. 1 ml of the cell culture fluid was taken from each flask every 24 hours, followed by investigation of the cell concentration and the cell viability.

[1] = test system: HEK293_GS-KO host cell line; settings: glutamine-free selection medium
Method: (§1) First, the cells were inoculated in T-25 flask containing 5 ml of DMEM supplemented with 1×GSEM, 7% (v/v) FBS and glutamine at the density of 4×10^5 cells/ml. 24 hours later, when the cultured cells reached 90% of confluency in the flask, the vector containing a target protein gene mixed with liposome was additionally added to the gs gene knockout HEK293 cell line prepared in Experimental Example 1. 24 hours later, the selection marker protein (GS) inhibitor MSX was treated to the selection medium (glutamine-free DMEM supplemented with 1×GSEM and 10% (v/v) dFBS) at the concentrations of 0 μM, 25 μM, 50 μM, and 100 μM. The cells introduced with the vector were inoculated in the 96 well plate by 200 μl/well. The wild type HEK293 host cell line was also introduced with a target protein gene by the same manner as described above, followed by the selection from the 96 well plate. The cell concentration for the inoculation into the 96 well plate was determined by the concentration at which only one clone would survive after 3 weeks of selection period. To select the MSX resistant cell line (transformed cell line), the cells showing MSX resistance could be collected as a pool or prepared as each individual clone and herein the cell line was collected as an individual clone.
(§2) In the table above, “survival rate” was obtained by dividing the number of all the wells containing the cell by the number of the total inoculated wells.
(§3) The cells inoculated in a 96 well plate were observed under microscope and the medium was replaced every 5˜7 days. […] The collected cells were inoculated in a 48 well plate (500 μl). When the cells were grown in the well, the cells were inoculated again in a 24 well plate (1 ml). When the cells were fully grown in the 24 well plate, the cells were collected and inoculated in another 24 well plate containing 1 ml of culture medium at the density of 1×10^5 cells/ml. To quantify the production of the target protein, batch culture was performed for 6 days. On the 6th day, the medium was collected and ELISA was performed with the target protein to measure the productivity of each clone. By the method above, 50 clones originated from the gs knockout HEK93 cell line were constructed each in the presence of 0 μM, 25 μM, and 50 μM of MSX. 50 control clones originated from the wild type HEK293 cell line were also constructed for comparison.
(§4) In the Table above, “selection efficiency” indicates the portion of high production clones (those clones that could produce a target protein at least 1 μg/μl until the 6th day) in 50 constructed clones at each condition.

[2] = test system: wild type HEK293 host cell line; settings: glutamine-free selection medium
Method: as §1, §2, §3, §4

CS(=N)(=O)CC[C@H](N)C(=O)O (stereo partly shown) [MSX, methionine sulfoximine]
resistance against MSX (cell growth and cell viability) (HEK293 cell line): high resistance | Survival rate ([1]; MSX 25 μM, inoculation 2000 cells/96 well): 11.9% | Survival rate ([1]; MSX 50 μM, inoculation 2000 cells/96 well): 2.3% | Survival rate ([1]; MSX 100 μM, inoculation 5000 cells/96 well): 0.5% | Survival rate ([2]; MSX 25 μM, inoculation 1 cells/96 well): 22.9% | Survival rate ([2]; MSX 50 μM, inoculation 10 cells/96 well): 28.1% | Survival rate ([2]; MSX 100 μM, inoculation 500 cells/96 well): 75.8%

Reference: US9567578B1, “Cell line containing a knockout of the glutamine synthetase (GS) gene and a method of producing target proteins using a GS knockout HEK293 cell line” (Korea Advanced Institute of Science and Technology, priority 2016, dated 2017)
